The source of these data is PubChem BioAssay AID2038 (NMMLSC, 2009).

Activity calls are given as the source filed them. No rule for the calls is given here.

One assay deals with GTPase HRas (Homo sapiens) (UniProt P01112). The experiment in a line: wildtype Ras GTP binding inhibitors, SAR follow-up, biochemical, additional analogs, multiplex flow cytometry, Ki (AID 2038). The settings on record: Multiplex bead flow cytometry, fluorescent GTP binding.
Sequence of GTPase HRas (Homo sapiens) (P01112 whole entry, looked up): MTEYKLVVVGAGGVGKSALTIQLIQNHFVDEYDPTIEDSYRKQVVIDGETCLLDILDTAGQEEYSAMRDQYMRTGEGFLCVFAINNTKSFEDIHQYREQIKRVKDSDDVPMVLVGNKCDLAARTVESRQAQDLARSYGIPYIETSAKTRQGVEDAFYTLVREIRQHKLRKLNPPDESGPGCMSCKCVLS
Consider `O=C1C(c2c(O)[nH]c3ccccc23)=Nc2ccccc21`, for which the EC50 is > 30 µM (inactive).
`O=C1N=c2ccccc2=C1c1[nH]c(=S)[nH]c1O`: the EC50 was > 30 µM (inactive).
Still for that read-out and setting: the figure for `O=Nc1c(-c2c(O)[nH]c3c(Br)cccc23)[nH]c2ccccc12` is > 37.5 µM (inactive); for `O=Nc1c(-c2c(O)[nH]c3c(Cl)cccc23)[nH]c2ccccc12` it is > 30 µM (inactive).
Same read-out and setting: next, `O=C1C(c2c(O)[nH]c3c(Br)cccc23)=Nc2ccccc21`: > 30 µM (inactive); `O=C1C(c2c(O)[nH]c3ccc(Br)cc23)=Nc2ccccc21`: > 30 µM (inactive).
On the same count and under the same terms, the figure for `O=Nc1c(-c2c(O)[nH]c3ccccc23)[nH]c2ccccc12` is > 30 µM (inactive); for `O=Nc1c(-c2c(O)[nH]c3ccc(Br)cc23)[nH]c2ccccc12` it is > 30 µM (inactive).
For the compound `O=C1C(c2c(O)[nH]c3c(Cl)cccc23)=Nc2ccccc21`, the EC50 was > 30 µM (inactive).
Same read-out and setting: next, `O=Nc1c(-c2c(O)[nH]c3c(F)cccc23)[nH]c2ccccc12`: > 30 µM (inactive).
On the same count and under the same terms, the figure for `COc1ccc2cc([C@H](C)C(=O)O)ccc2c1` is > 30 µM (inactive).
On the same count and under the same terms, next, `O=C1C(c2c(O)[nH]c3c(F)cccc23)=Nc2ccccc21`: > 30 µM (inactive).
In the case of `O=C1N=c2ccccc2=C1c1[nH]c(=O)[nH]c1O`, the EC50 was > 30 µM (inactive).

The same assay, now with this note: Multiplex bead flow cytometry, fluorescent GTP binding; measured here: Ki from EC50.
In turn, `COc1ccc2cc([C@@H](C)C(=O)O)ccc2c1` showed a Ki of 0.49 µM.
For the compound `O=Nc1c(-c2c(O)[nH]c3c(Br)cccc23)[nH]c2ccccc12`, the Ki was determined as 5.85 µM.
The same measure, in the same setting: the figure for `O=C(C#Cc1ccccc1)c1ccc(F)cc1` is 4.84 µM.
